Measured values taken from US20200239530A1, “COMPOUNDS AND METHODS OF MODULATING PROTEIN DEGRADATION” (Vividion Therapeutics, Inc., priority 2017, published 2020).
Each block holds one compound with its values, some of them ahead of it.

Tests used:
Assay type in all cases: binding
[1] = biological target: T1, cysteine residue illustrated in Table 1A or Table 2A (Homo sapiens, UniProt P55774); test: Competitive cysteine profiling of cell lysate with desthiobiotin iodoacetamide probe (96-well sample prep); conditions: UniProt P55774
T1 construct: Cells were resuspended in cold PBS on ice and sonicated with a probe sonicator to achieve lysis; endogenous in cells
Outline: (§1)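 Competitive profiling: compound and lysate (5 mg/ml protein) incubated 1 h at 25 °C before a 1 h, 25 °C desthiobiotin iodoacetamide probe step. Proteins were acetone-precipitated, reduced, alkylated and trypsinized; streptavidin-captured labelled peptides were eluted for MS analysis.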

[2] = biological target: T2, cysteine residue illustrated in Table 1A or Table 2A (Homo sapiens, UniProt Q86Y01); test: as above; conditions: UniProt Q86Y01; 100 uM
T2 construct: Cells were resuspended in cold PBS on ice and sonicated with a probe sonicator to achieve lysis; endogenous in cells
Outline: as §1

Q99728 = Q99728 (Homo sapiens, UniProt Q99728); test: Competitive cysteine profiling, probe competition (Table 2B); design: endogenous in cells; conditions: read-out: KB05_100 uM_percent_inhibition
Excerpt: (§2) The following 96-well sample prep protocol was used for sample preparation.

[3] = biological target: T3, cysteine residue illustrated in Table 1A or Table 2A (Homo sapiens, UniProt O76080); test: Competitive cysteine profiling of cell lysate with desthiobiotin iodoacetamide probe (96-well sample prep); conditions: UniProt O76080; KB03 100 uM
T3 construct: Cells were resuspended in cold PBS on ice and sonicated with a probe sonicator to achieve lysis; endogenous in cells
Outline: as §1

[4] = biological target: T4, cysteine residue illustrated in Table 1A or Table 2A (Homo sapiens, UniProt P10074); test: as above; conditions: UniProt P10074; KB03 100 uM
T4 construct: Cells were resuspended in cold PBS on ice and sonicated with a probe sonicator to achieve lysis; endogenous in cells
Outline: as §1

[5] = biological target: T5, cysteine residue illustrated in Table 1A or Table 2A (Homo sapiens, UniProt Q13617); test: as above; conditions: UniProt Q13617; 100 uM
T5 construct: Cells were resuspended in cold PBS on ice and sonicated with a probe sonicator to achieve lysis; endogenous in cells
Outline: as §1

[6] = biological target: T6, cysteine residue illustrated in Table 1A or Table 2A (Homo sapiens, UniProt Q5T4S7); test: as above; conditions: UniProt Q5T4S7; KB03 500 uM
T6 construct: Cells were resuspended in cold PBS on ice and sonicated with a probe sonicator to achieve lysis; endogenous in cells
Outline: as §1

[7] = biological target: T7, cysteine residue illustrated in Table 1A or Table 2A (Homo sapiens, UniProt Q6FIF0); test: as above; conditions: UniProt Q6FIF0; KB03 100 uM
T7 construct: Cells were resuspended in cold PBS on ice and sonicated with a probe sonicator to achieve lysis; endogenous in cells
Outline: as §1

[8] = biological target: T8, cysteine residue illustrated in Table 1A or Table 2A (Homo sapiens, UniProt Q9NZJ0); test: as above; conditions: UniProt Q9NZJ0; 500 uM
T8 construct: Cells were resuspended in cold PBS on ice and sonicated with a probe sonicator to achieve lysis; endogenous in cells
Outline: as §1

[9] = biological target: T9, cysteine residue illustrated in Table 1A or Table 2A (Homo sapiens, UniProt Q9UBI1); test: as above; conditions: UniProt Q9UBI1; 500 uM
T9 construct: Cells were resuspended in cold PBS on ice and sonicated with a probe sonicator to achieve lysis; endogenous in cells
Outline: as §1

[10] = biological target: T10, cysteine residue illustrated in Table 1A or Table 2A (Homo sapiens, UniProt Q5VU92); test: as above; conditions: UniProt Q5VU92
T10 construct: Cells were resuspended in cold PBS on ice and sonicated with a probe sonicator to achieve lysis; endogenous in cells
Outline: as §1

[11] = biological target: T11, cysteine residue illustrated in Table 1A or Table 2A (Homo sapiens, UniProt Q9Y6I7); test: as above; conditions: UniProt Q9Y6I7; KB02 100 uM
T11 construct: Cells were resuspended in cold PBS on ice and sonicated with a probe sonicator to achieve lysis; endogenous in cells
Outline: as §1

Q9NXR7 = Q9NXR7 (Homo sapiens, UniProt Q9NXR7); test: Competitive cysteine profiling, probe competition (Table 2B); design: endogenous in cells; conditions: read-out: KB02_500 uM_percent_inhibition
Excerpt: as §2

KB05_100 uM_percent_inhibition ([1]; 100 uM): 5%
KB05_500 uM_percent_inhibition ([1]; 500 uM): 51%
KB05_100 uM_percent_inhibition [2]: 17%
inhibition at 100 µM (Q99728): 31%
Compound: C=CC(=O)N(c1ccccc1)c1ccc(Br)cc1 [KB05]

Compound: O=C(CCl)Nc1cc(C(F)(F)F)cc(C(F)(F)F)c1 [KBO3]
KB03_100 uM_percent_inhibition [3]: 14%
KB03_100 uM_percent_inhibition [4]: 24%
KB03_100 uM_percent_inhibition [5]: 30%
KB03_500 uM_percent_inhibition [6]: 69%
KB03_100 uM_percent_inhibition [7]: 8%
KB03_500 uM_percent_inhibition [8]: 69%
KB03_500 uM_percent_inhibition [9]: 29%

Compound: COc1ccc2c(c1)CCCN2C(=O)CCl [KB02]
KB02_100 uM_percent_inhibition ([10]; 100 uM): 25%
KB02_500 uM_percent_inhibition ([10]; 500 uM): 29%
KB02_100 uM_percent_inhibition [11]: 5%
inhibition at 500 µM (Q9NXR7): 50%
